The target of one series is T1, Galectin-8 (Homo sapiens, UniProt O00214).
T1 sequence (O00214 whole entry): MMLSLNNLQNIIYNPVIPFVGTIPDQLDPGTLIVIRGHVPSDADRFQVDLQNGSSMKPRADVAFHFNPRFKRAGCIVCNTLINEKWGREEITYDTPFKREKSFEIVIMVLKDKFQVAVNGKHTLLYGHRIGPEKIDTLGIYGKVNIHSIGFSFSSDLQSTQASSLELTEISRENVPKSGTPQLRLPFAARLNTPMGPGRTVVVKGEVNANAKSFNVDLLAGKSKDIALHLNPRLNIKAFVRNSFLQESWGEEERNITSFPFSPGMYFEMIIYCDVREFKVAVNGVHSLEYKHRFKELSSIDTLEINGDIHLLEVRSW
The series is described as follows: Competitive binding affinity to recombinant human galectin-8 N-terminal after 5 mins in presence of fluorescent probe 2-(fluorescein-5-yl-carbonylamino)ethyl beta-D-galactopyranosyl(1-4)-2-acetamido-2-deoxy-beta-D-glucopyranosyl(1-3)-beta-D-galactopyranosyl(1-4)-beta-D-glucopyranoside by fluorescence polarization assay. For orientation: Fluorescence polarisation rises when a labelled molecule tumbles more slowly, as on binding a larger partner.

Series [1] addresses T2, Galectin-9 (Homo sapiens, UniProt O00182). Briefly: Competitive binding affinity to recombinant human galectin-9 C-terminal after 5 mins in presence of fluorescent probe 3,3'-dideoxy-3-[4-(fluorescein-5-yl-carbonylaminomethyl)-1H-1,2,3-triazol-1-yl]-3'-(3,5-dimethoxy-benzamido)-1,1'-sulfanediyl-di-beta-D-galactopyranoside by fluorescence polarization assay.
Series [2] in a line: Solubility of the compound in DMSO at 100 mM. In kind it is physicochemical. To be noted: 100000 µM.
The target of series [3] is T2, Galectin-9. Briefly: Competitive binding affinity to recombinant human galectin-9 N-terminal after 5 mins in presence of fluorescent probe 2-(fluorescein-5-yl-carbonylamino)ethyl-beta-D-galactopyranosyl(1-4)-2-acetamido-2-deoxy-beta-D-glucopyranosyl(1-3)-beta-D-galactopyranosyl(1-4)-beta-D-glucopyranoside by fluorescence polarization assay.
Series [4] deals with Galectin-3 (Homo sapiens, UniProt P17931). The series is described as follows: Competitive binding affinity to recombinant human galectin-3 after 5 mins in presence of fluorescent probe by fluorescence polarization assay.
The target in series [5] is T3, Galectin-4 (Homo sapiens, UniProt P56470).
T3 sequence (P56470 whole entry): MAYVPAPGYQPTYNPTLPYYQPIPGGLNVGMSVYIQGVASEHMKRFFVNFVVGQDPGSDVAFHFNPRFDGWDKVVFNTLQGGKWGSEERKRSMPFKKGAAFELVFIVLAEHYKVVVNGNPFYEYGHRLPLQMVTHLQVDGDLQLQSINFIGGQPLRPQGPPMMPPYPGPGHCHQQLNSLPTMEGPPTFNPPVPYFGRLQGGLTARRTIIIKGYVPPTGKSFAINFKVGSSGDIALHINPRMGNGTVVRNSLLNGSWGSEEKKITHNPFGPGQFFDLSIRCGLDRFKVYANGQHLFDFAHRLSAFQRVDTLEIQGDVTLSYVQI
Briefly: Competitive binding affinity to recombinant human galectin-4 N-terminal after 5 mins in presence of fluorescent probe 3,3'-dideoxy-3-[4-(fluorescein-5-yl-carbonylaminomethyl)-1H-1,2,3-triazol-1-yl]-3'-(3,5-dimethoxy-benzamido)-1,1'-sulfanediyl-di-beta-D-galactopyranoside by fluorescence polarization assay.

The next series deals with T4, Galectin-7 (Mus musculus, UniProt O54974).
T4 sequence (O54974 whole entry): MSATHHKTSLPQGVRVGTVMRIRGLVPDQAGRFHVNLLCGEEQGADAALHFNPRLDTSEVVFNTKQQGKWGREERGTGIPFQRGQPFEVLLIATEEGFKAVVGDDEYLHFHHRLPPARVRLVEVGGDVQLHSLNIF
The series is described as follows: Competitive binding affinity to recombinant mouse galectin-7 after 5 mins in presence of fluorescent probe beta-D-galactopyranosyl(1-4)-2- acetamido-2-deoxy-beta-D-glucopyranosyl(1-3)-beta-D-galactopyranosyl(1-4)-(N1-fluorescein-5-yl-carbonylaminomethylcarbonyl)-beta-D-glucopyranosylamine by fluorescence polarization assay.

Series [6] concerns the target T3, Galectin-4. Briefly: Competitive binding affinity to recombinant human galectin-4 C-terminal after 5 mins in presence of fluorescent probe 2-(fluorescein-5/6-yl-carbonyl)-aminoethyl 2-acetamido-2-deoxy-alpha-D-galactopyranosyl-(1-3)-[alpha-L-fucopyranosyl-(1-2)]-beta-D-galactopyranosyl-(1-4)-beta-D-glucopyranoside by fluorescence polarization assay.
In series [7] the test system is Mus musculus. Briefly: Effect on inflammatory response in C57/Bl6 mouse assessed as change in bleomycin-induced total protein levels in bronchoalveolar lavage fluid at 0.35 to 3.5 mg/kg administered intratracheally as 4 doses every 48 hrs commencing on day 18 of bleomycin induction measured on day 26 post last dose. In kind it is functional, organism-based.
Series [8] relates to Mus musculus. The series is described as follows: Effect on inflammatory response in C57/Bl6 mouse assessed as change in bleomycin-induced total cell counts in bronchoalveolar lavage fluid at 0.35 to 3.5 mg/kg administered intratracheally as 4 doses every 48 hrs commencing on day 18 of bleomycin induction measured on day 26 post last dose. Format: functional, organism-based.

The next series deals with T5, Galectin-2 (Homo sapiens, UniProt P05162).
T5 sequence (P05162 whole entry): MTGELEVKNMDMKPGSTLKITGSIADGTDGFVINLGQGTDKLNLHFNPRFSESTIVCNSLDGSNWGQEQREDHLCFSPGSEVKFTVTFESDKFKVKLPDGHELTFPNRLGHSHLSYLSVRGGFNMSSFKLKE
The series is described as follows: Competitive binding affinity to recombinant human galectin-2 after 5 mins in presence of fluorescent probe ,[…]-3-[4-(fluorescein-5-yl-carbonylaminomethyl)-1H-1,2,3-triazol-1-yl]-3'-(3,5-dimethoxy-benzamido)-1,1'-sulfanediyl-di-beta-D-galactopyranoside by fluorescence polarization assay.

Series [9] has as its system Mus musculus. The series is described as follows: Anti-fibrotic activity in C57/Bl6 mouse bleomycin-induced lung fibrosis model assessed as reduction in fibrosis score at 0.35 to 1 mg/kg administered intratracheally as 4 doses every 48 hrs commencing on day 18 of bleomycin induction measured on day 26 post last dose by Masson's trichrome staining based assay relative to control. In kind it is functional, organism-based.

Series [10] concerns the target Galectin-3 (Homo sapiens, UniProt P17931, R186S). The series is described as follows: Competitive binding affinity to recombinant human galectin-3 R186S mutant after 5 mins in presence of fluorescent probe 2-(fluorescein-5/6-yl-carbonyl)-aminoethyl 2-acetamido-2-deoxy-alpha-D-galactopyranosyl-(1-3)-[alpha-L-fucopyranosyl-(1-2)]-beta-D-galactopyranosyl-(1-4)-beta-D-glucopyranoside by fluorescence polarization assay.

Series [11] has as its system Mus musculus. The series is described as follows: Anti-fibrotic activity in C57/Bl6 mouse bleomycin-induced lung fibrosis model assessed as reduction in total lung collagen levels at 3.5 mg/kg administered intratracheally as 4 doses every 48 hrs commencing on day 18 of bleomycin induction measured on day 26 post last dose relative to control. Format: functional. More on the design: scale not given: the % may be the effect or the level left.

Series [12] deals with Galectin-3 (Homo sapiens, UniProt P17931, R186K). The series is described as follows: Competitive binding affinity to recombinant human galectin-3 R186K mutant after 5 mins in presence of fluorescent probe beta-D-galactopyranosyl(1-4)-2-acetamido-2-deoxy-beta-D-glucopyranosyl(1-3)-beta-D-galactopyranosyl(1-4)-(N1-fluorescein-5-yl-carbonylaminomethylcarbonyl)-beta-D-glucopyranosylamine by fluorescence polarization assay.

In series [13] the test system is Mus musculus. Briefly: Anti-fibrotic activity in C57/Bl6 mouse assessed as reduction in bleomycin-induced galectin-3 levels in serum at 0.35 to 3.5 mg/kg administered intratracheally as 4 doses every 48 hrs commencing on day 18 of bleomycin induction measured on day 26 post last dose by ELISA. Format: functional, organism-based.
Another series concerns the target Galectin-1 (Homo sapiens, UniProt P09382). The series is described as follows: Competitive binding affinity to recombinant human galectin-1 after 5 mins in presence of fluorescent probe 3,3'-dideoxy-3-[4-(fluorescein-5-yl-carbonylaminomethyl)-1H-1,2,3-triazol-1-yl]-3'-(3,5-dimethoxy-benzamido)-1,1'-sulfanediyl-di-beta-D-galactopyranoside by fluorescence polarization assay.

Series [14] has as its system Mus musculus. The series is described as follows: Anti-fibrotic activity in C57/Bl6 mouse bleomycin-induced lung fibrosis model assessed as reduction in total lung collagen levels at 0.35 to 1 mg/kg administered intratracheally as 4 doses every 48 hrs commencing on day 18 of bleomycin induction measured on day 26 post last dose. In kind it is functional, organism-based.

Series [15] concerns the target Galectin-3 (Homo sapiens, UniProt P17931, K176L). The series is described as follows: Competitive binding affinity to recombinant human galectin-3 K176L mutant after 5 mins in presence of fluorescent probe beta-D-galactopyranosyl(1-4)-2-acetamido-2-deoxy-beta-D-glucopyranosyl(1-3)-beta-D-galactopyranosyl(1-4)-(N1-fluorescein-5-yl-carbonylaminomethylcarbonyl)-beta-D-glucopyranosylamine by fluorescence polarization assay.

The subject of series [16] is Mus musculus. Briefly: Anti-fibrotic activity in C57/Bl6 mouse assessed as reduction in bleomycin-induced galectin-3 levels in bronchoalveolar lavage fluid at 0.35 mg/kg administered intratracheally as 4 doses every 48 hrs commencing on day 18 of bleomycin induction measured on day 26 post last dose by ELISA. More on the design: scale not given: the % may be the effect or the level left. Format: functional. In general terms: An ELISA detects its analyte on a solid surface through an enzyme-linked reagent.

The test system of series [17] is Mus musculus. The series is described as follows: Anti-fibrotic activity in C57/Bl6 mouse assessed as reduction in bleomycin-induced galectin-3 levels in bronchoalveolar lavage fluid at 3.5 mg/kg administered intratracheally as 4 doses every 48 hrs commencing on day 18 of bleomycin induction measured on day 26 post last dose by ELISA. In kind it is functional. More on the design: scale not given: the % may be the effect or the level left.

Series [18] relates to Mus musculus. The series is described as follows: Effect on inflammatory score in bleomycin-induced C57/Bl6 mouse at 1 to 3.5 mg/kg administered intratracheally as 4 doses every 48 hrs commencing on day 18 of bleomycin induction measured on day 26 post last dose by Masson's trichrome staining based assay. In kind it is functional, organism-based.
The target in series [19] is Galectin-3 (Homo sapiens, UniProt P17931, R144S). Briefly: Competitive binding affinity to recombinant human galectin-3 R144S mutant after 5 mins in presence of fluorescent probe 2-(fluorescein-5/6-yl-carbonyl)-aminoethyl 2-acetamido-2-deoxy-alpha-D-galactopyranosyl-(1-3)-[alpha-L-fucopyranosyl-(1-2)]-beta-D-galactopyranosyl-(1-4)-beta-D-glucopyranoside by fluorescence polarization assay.

The target of series [20] is Galectin-3 (Homo sapiens, UniProt P17931, R144K). The series is described as follows: Competitive binding affinity to recombinant human galectin-3 R144K mutant after 5 mins in presence of fluorescent probe 2-(fluorescein-5/6-yl-carbonyl)-aminoethyl 2-acetamido-2-deoxy-alpha-D-galactopyranosyl-(1-3)-[alpha-L-fucopyranosyl-(1-2)]-beta-D-galactopyranosyl-(1-4)-beta-D-glucopyranoside by fluorescence polarization assay.

The subject of series [21] is Mus musculus. The series is described as follows: Anti-fibrotic activity in C57/Bl6 mouse bleomycin-induced lung fibrosis model assessed as reduction in fibrosis score at 3.5 mg/kg administered intratracheally as 4 doses every 48 hrs commencing on day 18 of bleomycin induction measured on day 26 post last dose by Masson's trichrome staining based assay relative to control. In kind it is functional, organism-based.

Active and inactive are the calls of the source. The calls are words filed in the database; no cut-off is given here. Where only a bound is given, the exact number is not on record here.

This is an account of results in ChEMBL document CHEMBL4428056 (J Med Chem, 2016).

Sequence of Galectin-3 (Homo sapiens, UniProt P17931) (P17931 whole entry): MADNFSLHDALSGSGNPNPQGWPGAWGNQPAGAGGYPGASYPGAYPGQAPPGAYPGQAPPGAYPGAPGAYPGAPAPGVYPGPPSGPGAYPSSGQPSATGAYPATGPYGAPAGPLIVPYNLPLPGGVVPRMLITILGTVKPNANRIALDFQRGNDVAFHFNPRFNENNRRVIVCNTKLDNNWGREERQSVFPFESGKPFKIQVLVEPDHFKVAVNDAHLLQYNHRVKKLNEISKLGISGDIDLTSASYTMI
T2 sequence (O00182 whole entry): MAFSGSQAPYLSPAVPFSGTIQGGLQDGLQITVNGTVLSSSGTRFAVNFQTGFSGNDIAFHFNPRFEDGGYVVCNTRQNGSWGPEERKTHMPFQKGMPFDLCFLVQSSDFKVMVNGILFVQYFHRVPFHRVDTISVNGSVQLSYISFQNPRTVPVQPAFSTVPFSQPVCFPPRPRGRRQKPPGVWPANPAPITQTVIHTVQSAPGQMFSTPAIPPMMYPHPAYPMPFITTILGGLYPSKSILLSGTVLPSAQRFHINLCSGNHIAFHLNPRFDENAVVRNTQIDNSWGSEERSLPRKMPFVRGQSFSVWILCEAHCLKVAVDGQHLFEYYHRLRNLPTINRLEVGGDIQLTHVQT
Sequence of Galectin-1 (P09382 whole entry): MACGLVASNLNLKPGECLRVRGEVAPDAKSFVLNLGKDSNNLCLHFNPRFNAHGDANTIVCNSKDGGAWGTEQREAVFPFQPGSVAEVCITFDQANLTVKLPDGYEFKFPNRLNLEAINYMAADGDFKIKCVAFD
Sequence of Galectin-3 (Homo sapiens, UniProt P17931, K176L) (P17931 2-250 K176L limits assumed): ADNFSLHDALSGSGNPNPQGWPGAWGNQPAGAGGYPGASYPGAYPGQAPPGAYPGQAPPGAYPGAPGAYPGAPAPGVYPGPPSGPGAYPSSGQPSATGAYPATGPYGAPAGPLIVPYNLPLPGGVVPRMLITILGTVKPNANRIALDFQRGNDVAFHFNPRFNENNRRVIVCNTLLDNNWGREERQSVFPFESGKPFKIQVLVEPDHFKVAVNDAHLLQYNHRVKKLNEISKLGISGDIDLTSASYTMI
Sequence of Galectin-3 (Homo sapiens, UniProt P17931, R144K) (P17931 2-250 R144K limits assumed): as the sequence (P17931 2-250 K176L limits assumed) above, with R143K, L175K counted along it
Sequence of Galectin-3 (Homo sapiens, UniProt P17931, R144S) (P17931 2-250 R144S limits assumed): as the sequence (P17931 2-250 K176L limits assumed) above, with R143S, L175K counted along it
Sequence of Galectin-3 (Homo sapiens, UniProt P17931, R186K) (P17931 2-250 R186K limits assumed): as the sequence (P17931 2-250 K176L limits assumed) above, with L175K, R185K counted along it
Sequence of Galectin-3 (Homo sapiens, UniProt P17931, R186S) (P17931 2-250 R186S limits assumed): as the sequence (P17931 2-250 K176L limits assumed) above, with L175K, R185S counted along it

Consider `COc1ccc2cc(CO[C@H]3[C@@H](O)[C@@H](CO)O[C@@H](S[C@@H]4O[C@H](CO)[C@H](O)[C@H](OCc5cc6ccc(OC)cc6oc5=O)[C@H]4O)[C@@H]3O)c(=O)oc2c1`, for which the Kd amounted to 84 µM on Galectin-8; 45 µM at Galectin-9 [1]; 8.3 µM at Galectin-9 [3]; 0.19 µM on Galectin-3 [4]; 140 µM at Galectin-4 [5]; 34 µM at Galectin-7. Moreover, the Kd at Galectin-4 [6] is over 500 µM. For the same compound, the solubility entry in series [2] was “Soluble”.

Consider `O=c1oc2ccccc2cc1CO[C@H]1[C@@H](O)[C@@H](CO)O[C@@H](S[C@@H]2O[C@H](CO)[C@H](O)[C@H](OCc3cc4ccccc4oc3=O)[C@H]2O)[C@@H]1O`, for which the outcome in the series with Mus musculus [7], in the series with Mus musculus [8], with Mus musculus [9], with Mus musculus [14] and in the series with Mus musculus [18] was inactive. Also, the Kd on Galectin-2 is 6.9 µM; at Galectin-3 [10] it was 50 µM; at Galectin-9 [3], 1.6 µM; at Galectin-3 [4], 0.091 µM; at Galectin-4 [5], 41 µM; on Galectin-7, 5 µM. The Kd on Galectin-3 [12] worked out at 110 µM; on Galectin-1, 16 µM; on Galectin-4 [6] it was 210 µM; at Galectin-3 [15], 0.27 µM; at Galectin-3 [19], 6.1 µM; at Galectin-3 [20] it was 3 µM. The results for the Activity in the series with Mus musculus [11], in the series on Mus musculus [16] and in the series with Mus musculus [17] were 58%, 49% and 66%, respectively. The solubility result in series [2] is “Soluble”. The result in the series on Mus musculus [13] and in the series with Mus musculus [21] was Active.

For the compound `O=c1oc2ccc(Cl)cc2cc1CO[C@H]1[C@@H](O)[C@@H](CO)O[C@@H](S[C@@H]2O[C@H](CO)[C@H](O)[C@H](OCc3cc4cc(Cl)ccc4oc3=O)[C@H]2O)[C@@H]1O`, the Kd on Galectin-8 was 71 µM; on Galectin-9 [3], 140 µM; on Galectin-3 [4] it was 1.4 µM; on Galectin-7, 60 µM; on Galectin-1 it was 21 µM. In addition, in series [2], the solubility entry is reported as “Soluble”.

With `O=C(N[C@H]1[C@@H](O)[C@@H](CO)O[C@@H](S[C@@H]2O[C@H](CO)[C@H](O)[C@H](NC(=O)c3ccc4ccccc4c3)[C@H]2O)[C@@H]1O)c1ccc2ccccc2c1`, the dissociation constant (Kd) at Galectin-3 [4] was determined as 0.16 µM; on Galectin-7, 1.7 µM.

As usually defined, the Kd is the free concentration of one partner at which half of the binding sites on the other are occupied at equilibrium, for simple one-to-one binding.
